What was measured:
[1] = biological target: triosephosphate isomerase recombinant enzyme of T. cruzi (TcTIM); details: cited from earlier work
[2] = test system: Leishmania spp (cutaneous) promastigotes; set-up: method as in earlier work; details: read-out: In vitro anti-Leishmania spp (cutaneous) activity (IC50); cited from earlier work
[3] = Stability with microsomal and cytosolic fractions of rat hepatocytes; format: in vitro ADME
Description: The qualitative analysis of the in vitro metabolization by the rat hepatocyte microsomal (MF) and cytosolic (CF) fractions of compounds 793, 1019, and 1018 was performed using chromatographic techniques (reverse phase high performance liquid chromatography and thin-layer chromatography). For this, the metabolization was monitored at different times (0, 30, 60 min and 4 h). In both MF and CF of hepatocytes treated with compounds 793 and 1019, it was observed that after one hour, more than 50% (t1/2 < 60 min) of the compounds were metabolized to more hydrophilic compounds. For these compounds, it was observed the appearance of new products of metabolization over time. […] Regarding the structure and metabolism, the heterocycles (thienyl vs. furyl) could be responsible for these different stabilities: the furyl ring would metabolize to an open cycle version, making this system more labile in front of the hepatic metabolization.
For the determination of the stability in the different fractions, cytosolic and microsomal, rat hepatocytes protein fractions were purchased by Sigma® and used according to the previously reported protocol. […] The final concentration of the molecules in the aqueous medium was […] and prepared from stock in DMSO of 40 mM. The solutions were homogenized and incubated at 37 °C for 10 min, 30 min, 1 h, 2 h, 3 h, and 4 h (by TLC). Incubation at 37 °C was performed in a reaction volume of 1 mL containing 2.5 µL of 30 mM magnesium chloride (MgCl2); 2.5 µL of 40 mM nicotinamide […] dinucleotide phosphate (NADP^+); 5 µL of 350 mM glucose 6-phosphate (Glu6P); 5 µL of glucose 6-phosphate dehydrogenase (Glu6PD) 50 U/mL, 5 µL of the stock of 40 mM compounds and the volume of the phosphate buffer (pH = 7) was defined so that cytosolic (CF) and microsomal (MF) fraction present a final protein concentration of 0.1 mg/mL. After that, the stability of compounds 793, 1018, and 1019 in the CF and MF of rat hepatocytes was evaluated by HPLC at different times: 0, 30, and 60 min. […]

[4] = test system: Salmonella typhimurium strains TA98, T100, T102, TA1535, and TA1537; assay: Ames test (mutagenicity); format: cell-based; details: for Ames test TA98 revertant colonies / Ames test TA100 revertant colonies / Ames test TA102 revertant colonies / Ames test TA1535 revertant colonies / Ames test TA1537 revertant colonies: absence of metabolic activation
Description: The mutagenic capacity of the compounds was determined from a 2 × 10^9 CFU/mL culture in Oxoid No. 2 medium in the exponential phase of Salmonella typhimurium strains TA98, T100, T102, TA1535, and TA1537 (hisD3052, histidine-dependent). Five serial dilutions to the third in DMSO were evaluated, starting from the maximum non-toxic dose estimated from the results of the toxicity test carried out initially. Positive controls were performed with 4-nitro-o-phenylenediamine (20 µg/plate) in the case of mutagenicity without activation. DMSO (50 µL/plate) and phenotype control (resistance to ampicillin, tetracycline, crystal violet, and sensitive UV light) were used as negative control. Compounds were incubated for 1 h at 37 °C in 2 mL of an agar solution containing 200 µL of histidine solution [(0.5 mM)/biotin (0.5 mM)]. It was then grown on glucose minimal agar for 48 h at 37 °C. When the effect of the metabolization on the compounds was studied, the S9 fraction (Gibco™, Thermo Fisher Scientific, Grand Island, NY, US) […] and expressed as the mean of duplicates ± standard deviation. The product was considered mutagenic when the number of revertant colonies doubled that of the negative control in at least two consecutive doses. The preparation of the bacterial suspension, the dissolution of the S9 fraction, the product, and the first part of the test (until the tubes with all the solutions were transferred to the stove for incubation) was carried out under sterile conditions, in a laboratory laminar flow and with sterile material (autoclave at 121 °C for 20 min or maintaining the manufacturer’s sterility). The addition of the histidine/biotin solution and the seeding of the plates were carried out under an upward air current generated by a burner.

[5] = test system: epimastigote form of T. cruzi, Tulahuen 2 strain; assay: Mechanism of death by flow cytometry, AV/IP labeling; format: cell-based; details: 20 × IC50
Description: Parasites were immediately analyzed on an Accuri C6 flow cytometer (BD Bioscience, Franklin Lakes, New Jersey, U.S.). […] Ten thousand events were analyzed for each of the two independent experiments. Data were analyzed using BD CSampler software (BD Bioscience). Untreated parasites were used as a control. For the positive control of apoptosis and necrosis, the parasites were treated with hydrogen peroxide (H2O2) 50 µM and 100 µM for 2.5 h, respectively. These single-spot controls were used to calculate color compensation for flow cytometry.

T. brucei = test system: T. brucei; set-up: method as in earlier work; details: read-out: In vitro anti-T. brucei activity (IC50); cited from earlier work

O=C(/C=C/C=C/c1ccco1)/C=C/C=C/c1ccco1 [Compound 793]
IC50 [1]: 3000 nM | IC50 [2]: 36 µM | In vitro metabolic stability (qualitative) ([3]; MF and CF of rat hepatocytes, up to 4 h): short half-life | Compound metabolized to more hydrophilic compounds ([3]; after one hour, both MF and CF): more than 50% | half-life at 400 µM ([3]; pH 7, both MF and CF of rat hepatocytes): < 60 min | Ames test (mutagenicity) [4]: NO | Ames test TA98 revertant colonies ([4]; 6 μg/plate): 5±2 | Ames test TA100 revertant colonies ([4]; 6 μg/plate): 89±3 | Ames test TA102 revertant colonies ([4]; 6 μg/plate): 171±1 | Ames test TA1535 revertant colonies ([4]; 6 μg/plate): 8±1 | Ames test TA1537 revertant colonies ([4]; 6 μg/plate): 16 ± 1 | Ames test TA98 revertant colonies ([4]; 18 μg/plate): 9±3 | Ames test TA100 revertant colonies ([4]; 18 μg/plate): 76±5 | Ames test TA102 revertant colonies ([4]; 18 μg/plate): 176±1 | Ames test TA1535 revertant colonies ([4]; 18 μg/plate): 12±1 | Ames test TA1537 revertant colonies ([4]; 18 μg/plate): 18±1 | Ames test TA98 revertant colonies ([4]; 55 μg/plate): 3±1 | Ames test TA100 revertant colonies ([4]; 55 μg/plate): 74±6 | Ames test TA102 revertant colonies ([4]; 55 μg/plate): 194±3 | Ames test TA1535 revertant colonies ([4]; 55 μg/plate): 14± 3 | Ames test TA1537 revertant colonies ([4]; 55 μg/plate): 24± 4 | Ames test TA98 revertant colonies ([4]; 166 μg/plate): 3 ± 1 | Ames test TA100 revertant colonies ([4]; 166 μg/plate): 58±3 | Ames test TA102 revertant colonies ([4]; 166 μg/plate): 203±2 | Ames test TA1535 revertant colonies ([4]; 166 μg/plate): 18±1 | Ames test TA1537 revertant colonies ([4]; 166 μg/plate): 28± 3 | Ames test TA98 revertant colonies ([4]; 500 μg/plate): 5±1 | Ames test TA100 revertant colonies ([4]; 500 μg/plate): 69±1 | Ames test TA102 revertant colonies ([4]; 500 μg/plate): 222±6 | Ames test TA1535 revertant colonies ([4]; 500 μg/plate): 20±1 | Ames test TA1537 revertant colonies ([4]; 500 μg/plate): 30 ± 3 | AV/IP labeling Q1-UR (double AV+/IP+ labeling) ([5]; 6 h): 74% | AV/IP labeling Q1-UR (double AV+/IP+ labeling) ([5]; 24 h): 84% | IC50 (T. brucei): 17 µM

Source: paper PMC9863266, “Preclinical Studies and Drug Combination of Low-Cost Molecules for Chagas Disease” (Pharmaceuticals, 2022)
